biological target: T1, yeast glucose 6-phosphate dehydrogenase (Saccharomyces cerevisiae, UniProt P11412); experiment: Enzymatic reducibility with the reaction catalyzed by yeast glucose 6-phosphate dehydrogenase; type: biochemical; settings: 0.05M triethanolamine/HCl pH 8.0, room temperature, 5.5 mM MgCl2, 4.5 mM glucose-6-phosphate, 0.1 mM coenzyme free or polymer-bound, 30 μg glucose-6-phosphate dehydrogenase
T1 sequence (P11412 1-505): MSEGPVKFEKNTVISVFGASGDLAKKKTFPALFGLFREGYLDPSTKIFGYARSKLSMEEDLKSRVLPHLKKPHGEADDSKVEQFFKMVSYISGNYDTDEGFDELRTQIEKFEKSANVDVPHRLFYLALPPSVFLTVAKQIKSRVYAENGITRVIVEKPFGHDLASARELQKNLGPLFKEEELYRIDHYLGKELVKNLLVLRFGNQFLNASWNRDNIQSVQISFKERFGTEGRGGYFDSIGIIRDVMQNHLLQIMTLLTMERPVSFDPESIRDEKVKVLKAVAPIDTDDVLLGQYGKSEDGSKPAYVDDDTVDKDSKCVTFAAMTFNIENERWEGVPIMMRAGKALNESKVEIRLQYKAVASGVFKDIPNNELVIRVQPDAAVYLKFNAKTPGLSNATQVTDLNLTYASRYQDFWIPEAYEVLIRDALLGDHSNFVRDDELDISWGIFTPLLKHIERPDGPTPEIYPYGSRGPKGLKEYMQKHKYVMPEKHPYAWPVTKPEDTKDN
Experimental: The enzymatic reducibility of the water-soluble polymer-bound N^6 -(2-aminoethyl)-NADP derivatives was determined compared with N^6 -(2-aminoethyl)-NADP with the reaction catalyzed by yeast glucose 6-phosphate dehydrogenase under the following conditions:
0.05M triethanolamine/HCl, pH 8.0, room temperature
4.5 mM glucose-6-phosphate
0.1 mM N^6 -(2-aminoethyl)-NADP (free or polymer-bound)
30 μg glucose-6-phosphate dehydrogenase
Note: For the N^6 -(2-aminoethyl)NADP and ^6 -(2-aminoethyl)-NADPH derivatives ε267 =21000 M^-1 cm^-1 and ε340 =6220 M^-1 cm^-1 were assumed as extinction coefficients.

Compound	Reducibility % [%]
PEG (Mr =20000)-N^6 -(2-aminoethyl)-NADP	95
poly-(divinyl ether/maleic acid)-N^6 -(2-aminoethyl)-NADP	63
poly-(methylvinyl ether/maleic acid)-N^6 -(2-aminoethyl)-NADP	60

Next, values leading:

Reducibility % [%]	Compound
50	poly-(ethylene/maleic acid)-N^6 -(2-aminoethyl)-NADP
95	PEG (Mr =4000)-N^6 -(2-aminoethyl)-NADP
100	NCCNc1ncnc2c1ncn2[C@@H]1O[C@H](COP(=O)(O)OP(=O)([O-])OC[C@H]2O[C@@H]([n+]3cccc(C(N)=O)c3)[C@H](O)[C@@H]2O)[C@@H](O)[C@H]1OP(=O)(O)O [N^6-(2-aminoethyl)-NADP]

same assay, conditions: catalyzed by beer yeast glucose-6-phosphate dehydrogenase

Enzymatic reduction to N^6 -(2-aminoethyl)-NADPH (in words)	Compound
Quantitative reduction	NCCNc1ncnc2c1ncn2[C@@H]1O[C@H](COP(=O)(O)OP(=O)([O-])OC[C@H]2O[C@@H]([n+]3cccc(C(N)=O)c3)[C@H](O)[C@@H]2O)[C@@H](O)[C@H]1OP(=O)(O)O [N^6-(2-aminoethyl)-NADP]

biological target: T2, yeast alcohol dehydrogenase (Saccharomyces cerevisiae, UniProt P00330); experiment: Enzymatic reducibility with the reaction catalyzed by yeast alcohol dehydrogenase; type: biochemical; settings: 0.1M tris/HCl pH 8.2, room temperature, 0.1M ethanol, 7 mM semicarbazide/HCl, 0.1 mM coenzyme free or polymer-bound, 0.3 mg alcohol dehydrogenase
T2 sequence (P00330 1-348): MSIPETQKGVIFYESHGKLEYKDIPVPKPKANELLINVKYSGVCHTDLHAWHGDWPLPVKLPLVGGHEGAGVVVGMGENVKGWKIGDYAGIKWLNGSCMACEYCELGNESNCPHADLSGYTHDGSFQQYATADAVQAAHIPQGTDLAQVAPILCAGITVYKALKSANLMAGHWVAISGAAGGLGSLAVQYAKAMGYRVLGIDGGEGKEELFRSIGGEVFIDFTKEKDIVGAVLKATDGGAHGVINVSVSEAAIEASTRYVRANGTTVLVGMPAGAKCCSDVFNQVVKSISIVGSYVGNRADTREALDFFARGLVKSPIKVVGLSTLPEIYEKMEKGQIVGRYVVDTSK
Experimental: The enzymatic reducibility of the water-soluble polymer-bound N^6 -(2-aminoethyl)-NAD derivatives was determined compared with N^6 -(2-aminoethyl)-NAD with the reaction catalyzed by yeast alcohol dehydrogenase under the following conditions:
0.1M tris/HCl, pH 8.2, room temperature
0.1 mM N^6 -(2-aminoethyl)-NAD
0.3 mg alcohol dehydrogenase
Note: For N^6 -(2-aminoethyl)-NAD and N^6 -(2-aminoethyl)-NADH derivatives ε267 =21000 M^-1 cm^-1 and ε340 =6220 M^-1 cm^-1 as extiction coefficients.

Compound	Reducibility % [%]
polyethylene glycol N^6 -(2-aminoethyl)-NAD	90
poly-(divinyl ether/maleic acid)-N^6 -(2-aminoethyl)-NAD	60
dextran-N^6 -(2-aminoethyl)-NAD	90
poly-(methylvinyl ether/maleic acid)-N^6 -(2-aminoethyl)-NAD	70
NCCNc1ncnc2c1ncn2[C@@H]1O[C@H](COP(=O)(O)OP(=O)([O-])OC[C@H]2O[C@@H]([n+]3cccc(C(N)=O)c3)[C@H](O)[C@@H]2O)[C@@H](O)[C@H]1O [N^6-(2-aminoethyl)-NAD]	100
polyvinylpyrrolidone N^6 -(2-aminoethyl)-NAD	90
poly-(ethylene/maleic acid)-N^6 -(2-aminoethyl)-NAD	60

same assay, conditions: catalyzed by beer yeast alcohol dehydrogenase

Enzymatic reduction to N^6 -(2-aminoethyl)-NADH (in words)	Compound
Quantitative reduction	NCCNc1ncnc2c1ncn2[C@@H]1O[C@H](COP(=O)(O)OP(=O)([O-])OC[C@H]2O[C@@H]([n+]3cccc(C(N)=O)c3)[C@H](O)[C@@H]2O)[C@@H](O)[C@H]1O [N^6-(2-aminoethyl)-NAD]

Reference: patent US5399681A, “Method for preparing N^6 -substituted NAD, NADP or FAD” (Gesellschaft fur Biotechnologische Forschung mbH (GBF), priority 1986, dated 1995)
